This note sets out measurements from article PMC8344021, “Discovery of Small Molecule Bak Activator for Lung Cancer Therapy” (Theranostics, 2021).

Assay [1] relates to MDA-MB-231, MCF7, HCT-116, Ramos, OPM-1, PANC-1 and U2OS cell lines. In words: Apoptotic cell death in other types of cancer cell lines. The assay is classed as cell-based, human. The note with it: 1μM, 72h. The method, then: Figure S2. BKA-073 induces mitochondrial priming and apoptosis in various type of cancers. (A) Expression levels of Bak were analyzed by Western blot in various type of cancer cell lines. (B-C) Various type of cancer cell lines were treated with BKA -073 (1µM) for 16h or 72h, followed by analysis of dynamic BH3 profiling (B) or apoptotic cell death (C), respectively.
Data represent the mean ± SD, n = 3 per group. ***P < 0.001, by 2-tailed t test.
(1 picture or pasted object on this page, not shown here)
Supplemental Materials and Methods
Small molecule NSC14073 (BKA-073) was obtained from the Drug Synthesis and Chemistry Branch, Developmental Therapeutic Program, Division of Cancer Treatment and Diagnosis, National Cancer Institute (NCI, Bethesda, MD) (http://dtp.nci.nih.gov/RequestCompounds).
Venetoclax (ABT-199, 205807) was purchased from MedKoo Biosciences (Morrisville, NC). […]
Cells were seeded at a density of 5 × 103 per well in 96-well plates and allowed to grow overnight. After treatment with BKA-073, the surviving cell fraction was determined using the sulforhodamine B (SRB) assay as described. Optical density (OD) was measured at 510nm in a microplate reader (Synergy H1, BioTek®, Winooski, VT). […]
Apoptotic cells were detected using Annexin-V Apoptosis Detection Kit (556547, BD Biosciences, San Jose, CA) according to the manufacturer’s instructions. […]

Assay [2] relates to H1299, H460 and A549 cells. In words: Sulforhodamine B (SRB) cytotoxicity screening. The class given is cell-based, human. The note with it: SRB assay. An excerpt:
The BH3 death domain is known to be required for the proapoptotic function of Bak. We chose the BH3 domain binding pocket (aa75-88) of Bak (PDB ID: 2YV6) as a docking site for screening of small molecules using the UCSF DOCK 6.1 program suite and the NCI chemical library (300,000 small molecule) database as we recently described, [20], [29], [34]. Small molecules were ranked according to their energy scores. The top 500 compounds determined to have the highest affinity for the BH3 domain were obtained from the NCI and tested for cytotoxicity in human lung cancer cells (i.e. H1299, H460 and A549 cells) by sulforhodamine B (SRB) assay for further screening as described, [36]. […] We named this lead compound Bak activator BKA-073 (C19H24ClN3O2, MW: 361.87) (Figure 1A). To test the effect of BKA-073 on mitochondrial priming (∆% priming) and apoptotic cell death, human lung cancer A549 cells were treated with increasing concentrations (0, 0.25, 0.5, 0.75, 1.0 µM) of BKA-073, followed by analysis of dynamic BH3 profiling (DBP) at 16h and apoptotic cell death at 72h as described, [37]. […] In addition to lung cancer cell lines, we evaluated the efficacy of BKA-073 in other types of cancer cell lines, including breast cancer (MDA-MB-231 and MCF7), colon cancer (HCT-116), lymphoma (Ramos), multiple myeloma (OPM-1), pancreatic cancer (PANC-1) and osteosarcoma (U2OS) cell lines. […]

Consider `COc1ccc2nc3ccccc3c(NCCNCC(C)O)c2c1` (centres unmarked) [BKA-073], for which the “induction of apoptotic cell death” value in assay [1] is reported as “potently induced”. Besides, the “cytotoxicity among top 500 docking hits” value in assay [2] is reported as “most potent activity”.
